Converted amounts (≈) assume the structure as drawn.
Columns and labels:
[1] = biological target: CDK7/Cyclin H/MNAT1 (Homo sapiens, UniProt P50613); experiment: (§1) Inhibition of full length N-terminal GST fused human CDK7 (1 to 346 residues)/CyclinH (1 to 323 residues)/ MAT1 (1 to 309 residues) expressed in baculovirus expression system using FL peptide as substrate preincubated for 30 mins followed by substrate addition and further incubated for 90 mins by EZ reader method
[2] = Cmax in Sprague-Dawley rat at 3 mg/kg, po measured upto 24 hrs by LC-MS/MS analysis; format: ADME, organism-based; design: route oral, dose 3 mg/kg, time <=24; conditions: in vivo
[3] = Apparent permeability across apical to basolateral side in dog MDCKII-MDR1 cells at 1 uM incubated for 120 mins; format: ADME, cell-based, Canis lupus familiaris; conditions: MDCK-MDR1
[4] = Plasma protein binding in Sprague-Dawley rat at 1 uM incubated for 6 hrs by equilibrium dialysis based LC-MS/MS analysis; format: ADME, cell-free; conditions: read-out: PPB (converted)
[5] = Kinetic aqueous solubility of compound in PBS at pH 7.4 incubated for 2 hrs by LC-MS/MS analysis; format: physicochemical; conditions: read-out: Kinetic_solubility
[6] = organism: Homo sapiens; experiment: Selectivity ratio of IC50 for human CDK6 to IC50 for human CDK5
[7] = biological target: CDK2/Cyclin A2 (Homo sapiens, UniProt P24941); experiment: Inhibition of full length N-terminal GST tagged human CDK2(1 to 298 residues)/CyclinA2 (1 to 432 residues) expressed in baculovirus expression system using FL peptide as substrate preincubated for 30 mins followed by substrate addition further incubated for 120 mins by EZ reader method
[8] = Half life in Sprague-Dawley rat at 1 mg/kg, iv measured upto 24 hrs by LC-MS/MS analysis; format: ADME, organism-based; conditions: in vivo
[9] = organism: Homo sapiens; experiment: Selectivity ratio of IC50 for inhibition of full length N-terminal GST tagged human CDK2(1 to 298 residues)/CyclinA2 (1 to 432 residues) to IC50 for inhibition of full length N-terminal GST fused human CDK5(1 to 292 residues)/ p25 (99 to 307 residues)
[10] = biological target: CDK6/cyclin D3 (Homo sapiens, UniProt Q00534); experiment: Inhibition of full length N-terminal GST fused human CDK6 (1 to 326 residues)/CyclinD3 (1 to 292 residues) expressed in baculovirus expression system using FL peptide as substrate preincubated for 30 mins followed by substrate addition and further incubated for 120 mins by EZ reader method
Sequence of CDK6/cyclin D3 (P30281 whole entry, the tested form may be a part): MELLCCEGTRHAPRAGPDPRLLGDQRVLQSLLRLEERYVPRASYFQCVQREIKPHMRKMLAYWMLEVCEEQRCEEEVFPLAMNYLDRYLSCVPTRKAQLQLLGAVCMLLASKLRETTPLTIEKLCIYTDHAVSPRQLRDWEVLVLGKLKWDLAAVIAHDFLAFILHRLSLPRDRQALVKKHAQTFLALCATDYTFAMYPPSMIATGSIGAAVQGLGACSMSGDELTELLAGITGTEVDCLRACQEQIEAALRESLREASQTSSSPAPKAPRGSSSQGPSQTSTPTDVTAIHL
Sequence of CDK6/cyclin D3 (Q00534 whole entry, the tested form may be a part): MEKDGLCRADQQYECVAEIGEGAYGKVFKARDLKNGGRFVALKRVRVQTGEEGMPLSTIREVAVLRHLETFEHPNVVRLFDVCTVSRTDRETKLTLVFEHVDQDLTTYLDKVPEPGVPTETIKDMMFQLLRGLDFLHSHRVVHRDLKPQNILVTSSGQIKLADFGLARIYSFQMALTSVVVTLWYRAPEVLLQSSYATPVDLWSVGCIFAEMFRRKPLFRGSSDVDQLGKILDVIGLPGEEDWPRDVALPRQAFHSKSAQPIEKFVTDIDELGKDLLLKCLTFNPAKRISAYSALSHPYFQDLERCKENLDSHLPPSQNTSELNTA

[11] = Volume of distribution at steady state in Sprague-Dawley rat at 1 mg/kg, iv measured upto 24 hrs by LC-MS/MS analysis; format: ADME, organism-based; conditions: in vivo, read-out: Vdss
[12] = organism: Homo sapiens; experiment: Selectivity ratio of IC50 for human CDK7 to IC50 for human CDK5
[13] = Clearance in Sprague-Dawley rat at 1 mg/kg, iv measured upto 24 hrs by LC-MS/MS analysis; format: ADME, organism-based; conditions: in vivo
[14] = AUC (0 to 24 hrs) in Sprague-Dawley rat at 1 mg/kg, iv measured upto 24 hrs by LC-MS/MS analysis; format: ADME, organism-based; design: route intravenous, dose 1 mg/kg, time <=24; conditions: in vivo
[15] = biological target: T1, Cyclin-dependent kinase 5/CDK5 activator 1 (Homo sapiens, UniProt Q00535); experiment: Inhibition of full length N-terminal GST fused human CDK5(1 to 292 residues)/ p25 (99 to 307 residues) expressed in baculovirus expression system using FL peptide as substrate preincubated for 30 mins followed by substrate addition further incubated for 60 mins by EZ reader method
T1 sequence (Q00535 whole entry, the tested form may be a part): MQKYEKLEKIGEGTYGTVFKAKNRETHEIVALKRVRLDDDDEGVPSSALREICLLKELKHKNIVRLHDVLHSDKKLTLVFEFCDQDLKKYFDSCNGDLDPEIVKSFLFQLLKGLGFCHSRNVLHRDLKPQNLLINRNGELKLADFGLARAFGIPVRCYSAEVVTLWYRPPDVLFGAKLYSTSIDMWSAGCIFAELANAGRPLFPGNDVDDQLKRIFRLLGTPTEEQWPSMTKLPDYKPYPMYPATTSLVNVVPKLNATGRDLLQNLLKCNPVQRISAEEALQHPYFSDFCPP
T1 sequence (Q15078 whole entry, further chain, the tested form may be a part): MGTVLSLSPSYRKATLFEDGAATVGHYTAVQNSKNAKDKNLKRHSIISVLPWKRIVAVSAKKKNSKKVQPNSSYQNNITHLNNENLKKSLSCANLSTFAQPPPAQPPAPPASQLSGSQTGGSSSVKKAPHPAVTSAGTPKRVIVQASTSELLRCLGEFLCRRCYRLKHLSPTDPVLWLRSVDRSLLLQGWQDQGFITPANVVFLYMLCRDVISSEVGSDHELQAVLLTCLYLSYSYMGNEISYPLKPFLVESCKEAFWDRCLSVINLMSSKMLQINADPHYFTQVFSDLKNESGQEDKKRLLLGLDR

[16] = Metabolic stability in CD-1 mouse hepatocytes assessed as intrinsic clearance at 1 uM measured up to 120 mins by LC-MS/MS analysis; format: ADME, cell-based, Hepatocyte; conditions: read-out: CLH
[17] = tested on: P-gp; experiment: Substrate activity at P-gp in dog MDCKII-MDR1 cells assessed as efflux ratio of permeability at 1 uM incubated for 120 mins; format: ADME, cell-based, Canis lupus familiaris; conditions: MDCK-MDR1
[18] = AUC (0 to 24 hrs) in Sprague-Dawley rat at 3 mg/kg, po measured upto 24 hrs by LC-MS/MS analysis; format: ADME, organism-based; design: route oral, dose 3 mg/kg, time <=24; conditions: in vivo
[19] = Oral bioavailability in Sprague-Dawley rat at 3 mg/kg measured upto 24 hrs by LC-MS/MS analysis; format: ADME, organism-based; conditions: in vivo
[20] = Cmax in Sprague-Dawley rat at 10 mg/kg, po measured upto 24 hrs by LC-MS/MS analysis; format: ADME, organism-based; design: route oral, dose 10 mg/kg, time <=24; conditions: in vivo
[21] = Metabolic stability in Sprague-Dawley rat hepatocytes assessed as intrinsic clearance at 1 uM measured up to 120 mins by LC-MS/MS analysis; format: ADME, cell-based, Hepatocyte; conditions: read-out: CLH
[22] = AUC (0 to 24 hrs) in Sprague-Dawley rat at 10 mg/kg, po measured upto 24 hrs by LC-MS/MS analysis; format: ADME, organism-based; design: route oral, dose 10 mg/kg, time <=24; conditions: in vivo
[23] = organism: Homo sapiens; experiment: Selectivity ratio of IC50 for human CDK9 to IC50 for human CDK5
[24] = Metabolic stability human hepatocytes assessed as intrinsic clearance at 1 uM measured up to 120 mins by LC-MS/MS analysis; format: ADME, cell-based, Hepatocyte; conditions: read-out: CLH
[25] = Oral bioavailability in Sprague-Dawley rat at 10 mg/kg measured upto 24 hrs by LC-MS/MS analysis; format: ADME, organism-based; conditions: in vivo
[26] = biological target: CDK9/cyclin T1 (Homo sapiens, UniProt P50750); experiment: as §1, with “CDK9(1 to 372 residues)/ His- tagged CyclinT1” for “CDK7”, “726” for “346 residues)/CyclinH (1 to 323 residues)/ MAT1 (1 to 309”
Sequence of CDK9/cyclin T1 (O60563 whole entry, the tested form may be a part): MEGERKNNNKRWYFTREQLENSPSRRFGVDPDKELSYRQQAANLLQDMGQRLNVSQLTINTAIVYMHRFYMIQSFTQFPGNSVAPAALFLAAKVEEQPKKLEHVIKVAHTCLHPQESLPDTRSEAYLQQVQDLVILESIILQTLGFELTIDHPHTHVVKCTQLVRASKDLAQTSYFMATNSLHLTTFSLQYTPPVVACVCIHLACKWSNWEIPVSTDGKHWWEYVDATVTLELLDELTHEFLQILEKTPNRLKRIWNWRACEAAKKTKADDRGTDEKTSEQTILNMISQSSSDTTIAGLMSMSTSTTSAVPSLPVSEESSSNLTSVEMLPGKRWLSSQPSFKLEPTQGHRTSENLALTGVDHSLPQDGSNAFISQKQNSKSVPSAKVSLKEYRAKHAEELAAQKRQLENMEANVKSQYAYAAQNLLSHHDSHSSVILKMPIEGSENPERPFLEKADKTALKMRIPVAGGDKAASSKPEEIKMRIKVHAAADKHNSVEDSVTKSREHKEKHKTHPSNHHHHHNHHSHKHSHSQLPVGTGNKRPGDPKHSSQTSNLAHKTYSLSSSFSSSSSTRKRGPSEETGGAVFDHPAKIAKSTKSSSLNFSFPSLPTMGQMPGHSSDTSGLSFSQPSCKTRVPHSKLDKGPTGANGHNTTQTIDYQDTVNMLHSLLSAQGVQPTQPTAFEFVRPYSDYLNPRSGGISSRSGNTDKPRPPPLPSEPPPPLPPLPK
Sequence of CDK9/cyclin T1 (P50750 whole entry, the tested form may be a part): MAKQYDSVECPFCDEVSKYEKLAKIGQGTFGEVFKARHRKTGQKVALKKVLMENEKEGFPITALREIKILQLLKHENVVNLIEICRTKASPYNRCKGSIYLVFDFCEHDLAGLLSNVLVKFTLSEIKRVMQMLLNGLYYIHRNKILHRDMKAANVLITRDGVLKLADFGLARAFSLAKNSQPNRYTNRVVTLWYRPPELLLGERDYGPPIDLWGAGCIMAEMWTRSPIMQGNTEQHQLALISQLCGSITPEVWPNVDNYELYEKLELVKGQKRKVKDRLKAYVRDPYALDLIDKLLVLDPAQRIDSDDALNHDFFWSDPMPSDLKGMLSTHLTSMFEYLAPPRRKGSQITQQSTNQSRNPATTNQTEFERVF

[27] = tested on: HEK-293T; experiment: Antiproliferative activity against human HEK293T cells assessed as cell growth inhibition incubated for 48 hrs; format: functional, cell-based
[28] = biological target: T1, Cyclin-dependent kinase 5/CDK5 activator 1; experiment: Inhibition of Nano-Luc fused human full length CDK5/P35 transfected in HEK293 cells incubated for 1 hr by NanoBRET assay; format: cell-based

Sequence of CDK7/Cyclin H/MNAT1 (P51946 whole entry, the tested form may be a part): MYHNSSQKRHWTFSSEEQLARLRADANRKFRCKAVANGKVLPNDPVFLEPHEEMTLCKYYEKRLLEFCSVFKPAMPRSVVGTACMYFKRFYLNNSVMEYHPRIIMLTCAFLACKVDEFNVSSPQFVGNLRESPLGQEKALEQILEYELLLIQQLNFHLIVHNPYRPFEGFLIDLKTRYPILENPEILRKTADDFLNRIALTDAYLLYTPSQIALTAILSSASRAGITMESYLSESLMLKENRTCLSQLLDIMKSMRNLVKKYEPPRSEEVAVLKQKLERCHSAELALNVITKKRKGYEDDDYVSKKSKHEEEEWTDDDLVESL
Sequence of CDK7/Cyclin H/MNAT1 (P50613 whole entry, the tested form may be a part): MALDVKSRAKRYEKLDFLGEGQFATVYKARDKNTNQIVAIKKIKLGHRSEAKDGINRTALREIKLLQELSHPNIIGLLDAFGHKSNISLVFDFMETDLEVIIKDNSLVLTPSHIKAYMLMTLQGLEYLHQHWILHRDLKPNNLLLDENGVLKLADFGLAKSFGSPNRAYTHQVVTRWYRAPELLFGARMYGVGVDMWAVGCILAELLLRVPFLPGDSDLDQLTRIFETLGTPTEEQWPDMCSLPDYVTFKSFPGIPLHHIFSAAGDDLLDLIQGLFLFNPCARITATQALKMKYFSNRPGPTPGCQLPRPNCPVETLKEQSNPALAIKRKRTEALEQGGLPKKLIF
Sequence of CDK7/Cyclin H/MNAT1 (P51948 whole entry, further chain, the tested form may be a part): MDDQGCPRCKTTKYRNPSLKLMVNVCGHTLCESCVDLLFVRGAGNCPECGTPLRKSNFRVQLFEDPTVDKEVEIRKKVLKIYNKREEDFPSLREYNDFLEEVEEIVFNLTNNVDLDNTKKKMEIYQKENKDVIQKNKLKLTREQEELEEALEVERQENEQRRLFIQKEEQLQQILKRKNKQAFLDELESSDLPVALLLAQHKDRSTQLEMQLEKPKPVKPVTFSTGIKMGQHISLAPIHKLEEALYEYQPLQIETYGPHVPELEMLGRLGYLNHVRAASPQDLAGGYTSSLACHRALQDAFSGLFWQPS

Row | IC50 [1] [nM] | Cmax [2] [ng/mL] | Papp A→B at 2 h, 1 µM [3] [×10⁻⁶ cm/s] | fraction unbound at 6 h, 1 µM [4] | solubility kinetic at 2 h [5] [µM] | IC50 [7] [nM] | half-life [8] [h] | Ratio IC50 [9] | IC50 [10] [nM] | Vd [11] [L/kg] | clearance [13] [mL/min/kg] | AUC(0-t) [14] [ng·h/mL] | IC50 [15] [nM] | CLint scaled at 1 µM [16] [mL/min/kg] | efflux ratio at 2 h, 1 µM [17] | AUC(0-t) [18] [ng·h/mL] | bioavailability [19] [%] | CLint scaled at 1 µM [21] [mL/min/kg] | CLint scaled at 1 µM [24] [mL/min/kg] | IC50 [26] [nM] | SMILES | further results
1 | 718 | 83 | 18 | 0.37 | 259 (≈ 116 µg/mL) | 211 | 7.6 | 92 | 3200 | 7.3 | 12 | 1300 | 2.3 | 89 | 9 | 999 | 25 | 17 | 13 | 894 | CN1CCC([C@@](C)(O)c2ccc3cnc(Nc4cc(C(F)(F)F)ncc4F)cc3n2)CC1 | Ratio IC50 [6]: 1390; Ratio IC50 [12]: 312; Cmax [20]: 350 ng/mL; AUC(0-t) [22]: 5320 ng·h/mL; Ratio IC50 [23]: 389; bioavailability [25]: 41%
2 | 78 | 19 | 7.9 | 0.53 | 274 (≈ 128 µg/mL) | 301 | 2.7 | 94 | 125 | 9.4 | 53 | 305 | 3.2 | 69 | 38 | 143 | 16 | < 13 | < 7 | 154 | CN1CCC([C@@](C)(O)c2ccc3cnc(Nc4cc(N5CCOCC5)ncc4F)cc3n2)CC1 | IC50 [27]: > 10000 nM; IC50 [28]: 1.2 nM

Source: ChEMBL document CHEMBL5046275 (J Med Chem, 2022)
